Results taken from article PMC11473416, “Coumarin-chalcone derivatives as dual NLRP1 and NLRP3 inflammasome inhibitors targeting oxidative stress and inflammation in neurotoxin-induced HMC3 and BE(2)-M17 cell models of Parkinson's disease” (Frontiers in Aging Neuroscience, 2024).

Experiments:
Type in all cases: cell-based, human
[1] = cytotoxicity MTT assay in HMC3 cells; conditions: human, MTT, 1–100 μM, 24 h
Description: Human HMC3 microglial (CRL-3304) and neuroblastoma BE(2)-M17 (CRL-2267) cells were obtained from American Type Culture Collection. BE(2)-M17 develops a better dopaminergic phenotype than SH-SY5Y when treated with retinoic acid to direct neuronal differentiation (Carvajal-Oliveros et al., [2022]). Cells were routinely maintained in Dulbecco's Modified Eagle Medium-Nutrient Mixture F12 (DMEM-F12) supplemented with 10% fetal bovine serum (FBS; Thermo Fisher Scientific, Waltham, MA, USA) in a 37°C incubator, with 95% relative humidity and 5% CO2 (NuAire, Plymouth, MN, USA).
To evaluate cytotoxicity of LM compounds and MPP^+, HMC3 (1 × 10^4) or BE(2)-M17 (2 × 10^4) cells were plated on 96-well dishes, grown for 20 h, and treated with LM compounds (1–100 μM) or MPP^+ [HMC3: 0–8 mM; BE(2)-M17: 0–5 mM]. Next day, 20 μl of tetrazolium dye 3-(4,5-dimethylthiazol-2-yl)-2,5-diphenyltetrazolium bromide (MTT, 5 mg/ml; Sigma-Aldrich) was added to the cells at 37°C for 3 h. The resulted insoluble purple formazan products were dissolved by lysis buffer (composition: 10% Triton X-100, 0.1 N HCl, 18% isopropanol). The absorbance of the dissolved product at optical density (OD) 570 nm was read by using a FLx800 fluorescence microplate spectrophotometer (Bio-Tek, Winooski, VT, USA). The half maximal inhibitory concentration (IC50) of LM compounds was determined through the construction of a dose-response curve. MPP^+ at 4 mM (HMC3 cell viability: 65%−69%) or 0.62 mM [BE(2)-M17 cell viability: 79%−84%] was selected to induce inflammation for further experiments.

[2] = tested on: caspase-3; assay: caspase-3 activity assay in MPP^+-treated BE(2)-M17 cells
Description: BE(2)-M17 cells were plated onto six-well (4 × 10^5/well) and treated with retinoic acid, LM compounds (10 μM), and MPP^+ as described. Cells were collected on day 7 and lysed by six freeze/thaw cycles. Types of substrates applied were: Ac-Tyr-Val-Ala-Asp-7-amino-4-trifluoromethyl coumarin (YVAD-AFC) for caspase-1, Ac-Val-Glu-Ile-Asp-7-amino-4-trifluoromethyl coumarin (VEID-AFC) for caspase-6 (BioVision, Milpitas, CA, USA), and Ac-Asp-Glu-Val-Asp-7-amido-4-methylcoumarin (DEVD-AMC) for caspase-3 (Sigma-Aldrich). The reaction mixtures were incubated for 1.5 h at 37°C per the manufacturer's instructions. The fluorescence intensity at 400 nm excitation and 505 nm emission (caspase-1 and caspase-6) or 360 nm excitation and 460 nm emission (caspase-3) wavelengths were recorded (BioTek FLx800).

[3] = tested on: GCLC; assay: Western blot GCLC in MPP^+-treated BE(2)-M17 cells; conditions: BE(2)-M17, compound 10 μM + 0.62 mM MPP^+; MPP^+ alone 86%; untreated = 100%
Description: HMC3 (2 × 10^5/6-well) or BE(2)-M17 (4 × 10^5/6-well) cells were lysed in buffer (composition: 50 mM Tris-HCl pH8.0, 2 mM EDTA pH8.0, 150 mM NaCl, 0.5% sodium deoxycholate, 0.1% SDS, 50 mM NaF, 1% NP40) containing the protease and/or phosphatase inhibitor cocktail (Sigma-Aldrich). After sonication, the lysates were centrifuged (12,000 × g for 10 min at 4°C) and protein concentrations determined (Bradford protein assay; Bio-Rad, Hercules, CA, USA). Aliquots of protein (20 μg) were separated by electrophoresis using 10%−12% SDS–polyacrylamide gel followed by transfer to a polyvinylidene fluoride (PVDF) membrane. After being blocked, the PVDF membrane was stained with NLRP3 (#15101s), caspase-1 (CASP1; #3866s), iNOS (#20609), IL-1β (#12242), CREB (#9192), BCL2-associated X (BAX; #2772; 1:1,000; Cell Signaling), IL-6 (#ab6672), TNF-α (#ab9739), GCLC (#ab41463), BDNF (#ab108319; 1:1,000; Abcam, Cambridge, UK), NLRP1 (#NBP-1-54899; 1:500; Novus Biologicals, Centennial, CO, USA), NRF2 (#ABE413), NQO1 (#N5288), p-CREB (Ser133; #06-519; 1:1,000; Sigma-Aldrich), PGC-1α (#GTX37356; 1:1,000; GeneTex, Irvine, CA, USA), B-cell lymphoma 2 (BCL2; #IR94-392; 1:1,000; iReal Biotechnology, New Taipei City, Taiwan), or glyceraldehyde-3-phosphate dehydrogenase (GAPDH; #30000002; 1:1,000; MDBio, Taipei, Taiwan) primary antibody at room temperature 2 h or 4°C overnight. The immune complexes were detected using horseradish peroxidase (HRP)-conjugated goat anti-mouse or goat anti-rabbit IgG antibody (1:5,000; GeneTex) and chemiluminescent HRP substrate (Millipore, Burlington, MA, USA). Immunoreactive bands were captured (ImageQuant™ LAS 4000, GE Healthcare, Chicago, IL, USA) and quantified (Multi Gauge V3.0 software, Fujifilm, Tokyo, Japan).

[4] = tested on: BE(2)-M17 cells; assay: high-content analysis of neurite outgrowth in MPP^+-treated BE(2)-M17 cells; conditions: for neurite length: MPP^+ alone 24.2 μm
Description: For automated neuronal morphology analysis, BE(2)-M17 cells were seeded in 24-well plate (5 × 10^4/well) and treated with retinoic acid, LM compounds (10 μM), and MPP^+ as described. On day 7, after being fixed and permeated, cells were stained with TUBB3 (neuronal class III β-tubulin) antibody (#802001; 1:1,000; BioLegend, San Diago, CA, USA) at 4°C overnight, followed by Alexa Fluor 555-donkey anti-rabbit (#A-31572) antibody (1:1,000; Thermo Fisher Scientific) at room temperature for 2 h. TUBB3 is a β-tubulin isoform constitutively expressed in neurons and important for maintaining further neurite elongation (Ferreira and Caceres, [1992]). After nuclei staining with DAPI, neuronal images were captured at 531 nm excitation and 593 nm emission wavelengths (ImageXpress Micro Confocal; Molecular Devices). Microscopic images were segmented with multi-colored mask to assign each outgrowth to a cell body for quantification of neurite outgrowth. Neurite total length (μm) and numbers of primary neurites originated from neuronal cell body (process) and secondary neurites extended from primary neurites (branch) were analyzed (Neurite Outgrowth Application Module; Molecular Devices). For each sample, around 3,000 cells were analyzed in each of three independent experiments.

[5] = BE(2)-M17, compound 10 μM + 0.62 mM MPP^+, MPP^+-untreated = 100%
[6] = BE(2)-M17, compound 10 μM + 0.62 mM MPP^+, MPP^+ alone 2.6
[7] = BE(2)-M17, compound 10 μM + 0.62 mM MPP^+

In the case of `Cc1ccc(/C=C/C(=O)c2c(O)c3ccccc3oc2=O)cc1` [LM-016], the IC50 at 24 h ([1]; HMC3 microglial cells) is reported as over 100 µM, the caspase-3 activity [2, 5] is reported as 102% and the GCLC level [3] is reported as 99–106%.

With `CN(C)c1ccc(/C=C/C(=O)c2c(O)c3ccccc3oc2=O)cc1` [LM-021, (E)-3-(3-(4-(dimethylamino)phenyl)acryloyl)-4-hydroxy-2H-chromen-2-one] the number of process [4, 6] was 2.8–3.0, the neurite length [4, 7] was 26.2–27.2 μm and the IC50 [1] was over 100 µM. The caspase-3 activity [2, 5] was 101% and the GCLC level [3] was 99–106%.

With `O=C(/C=C/c1ccccc1O)c1c(O)c2ccccc2oc1=O` [LM-036] the number of process [4, 6] was 2.8–3.0, the neurite length [4, 7] was 26.2–27.2 μm and the IC50 [1] was over 100 µM. The caspase-3 activity [2, 5] was 101% and the GCLC level [3] was 99–106%.

In the case of `C[n+]1ccc(-c2ccccc2)cc1` [MPP^+, 1-methyl-4-phenyl pyridinium, reference compound], the number of branch ([4]; BE(2)-M17, 0.62 mM MPP^+ alone, untreated 1.2, not significant) is reported as 1.1, the number of process ([4]; BE(2)-M17, 0.62 mM MPP^+ alone, untreated 2.9) is reported as 2.6 and the “total length of neurite” value ([4]; BE(2)-M17, 0.62 mM MPP^+ alone, untreated 26.0 μm) is reported as 24.2 μm. It also gave a caspase-3 activity ([2]; BE(2)-M17, 0.62 mM MPP^+ alone, untreated = 100%) of 114%.
